According to patent publication US12370235B2, “Synthetic, non-natural antimicrobial peptides inspired by Staphylococcus auricularis delta toxin” (University of Saskatchewan, priority 2021, dated 2025):
Ends that are not written are not given here.

Columns and labels:
C. albicans Y537 = assay: MIC, YPD broth; format: cell-based, Candida albicans; details: Table 8
C. albicans MYA-2876 = assay: MIC, YPD broth; format: cell-based, Candida albicans; details: Table 8
Procedure, shortened: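 Minimum inhibitory concentrations against Candida albicans were determined in YPD broth (10 g/L yeast extract, 20 g/L peptone, 20 g/L dextrose) using peptides of 95% purity. A 180 μl volume of diluted yeast was combined with 20 μl of peptide in a 2-fold dilution series in 96-well plates, with sterile water as control, then incubated standing overnight at 37° C.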

[1] = tested on: Mannheimia haemolytica ATCC 33393; assay: MIC, broth dilution; format: cell-based; details: Table 11; highest concentration 25 μg/mL
Procedure, shortened: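 Peptides (95% purity) in 2-fold dilution series were mixed with M. haemolytica diluted to OD 6×10^−4 in cation-adjusted Mueller Hinton broth and incubated standing overnight at 37 °C. MIC was the lowest concentration with no visible growth.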

[2] = tested on: Candida duobushaemulonii AR 392; assay: MIC, YPD broth, CDC and FDA AR Candida isolate panel; format: cell-based; details: Table 9 below the line: only 200 or 100 μg/mL tested; values reported as 100 are ≤100 μg/mL
Procedure, shortened: (§1)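 Cells are diluted to optical density […] and exposed to a 2-fold peptide series. Cultures then incubate overnight at 37° C without agitation.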

[3] = tested on: Saccharomyces cerevisiae AR 400; assay: as above; format: cell-based; details: Table 9 below the line: only 200 or 100 μg/mL tested; values reported as 100 are ≤100 μg/mL
Procedure, shortened: as §1

[4] = tested on: Candida haemulonii AR 393; assay: as above; format: cell-based; details: Table 9 below the line: only 200 or 100 μg/mL tested; values reported as 100 are ≤100 μg/mL
Procedure, shortened: as §1

[5] = tested on: Candida duobushaemulonii AR 391; assay: as above; format: cell-based; details: Table 9 below the line: only 200 or 100 μg/mL tested; values reported as 100 are ≤100 μg/mL
Procedure, shortened: as §1

[6] = tested on: Saccharomyces cerevisiae AR 399; assay: as above; format: cell-based; details: Table 9 below the line: only 200 or 100 μg/mL tested; values reported as 100 are ≤100 μg/mL
Procedure, shortened: as §1

[7] = tested on: Candida lusitaniae AR 398; assay: as above; format: cell-based; details: Table 9 below the line: only 200 or 100 μg/mL tested; values reported as 100 are ≤100 μg/mL
Procedure, shortened: as §1

Kodamae ohmeri AR 396 = assay: as above; format: cell-based; details: Table 9 below the line: only 200 or 100 μg/mL tested; values reported as 100 are ≤100 μg/mL
Procedure, shortened: as §1

[8] = tested on: Candida duobushaemulonii AR 394; assay: as above; format: cell-based; details: Table 9 below the line: only 200 or 100 μg/mL tested; values reported as 100 are ≤100 μg/mL
Procedure, shortened: as §1

[9] = tested on: Candida haemulonii AR 395; assay: as above; format: cell-based; details: Table 9 below the line: only 200 or 100 μg/mL tested; values reported as 100 are ≤100 μg/mL
Procedure, shortened: as §1

Candida krusei AR 397 = assay: as above; format: cell-based; details: Table 9 below the line: only 200 or 100 μg/mL tested; values reported as 100 are ≤100 μg/mL
Procedure, shortened: as §1

[10] = tested on: S. aureus ATCC BAA-2313 (MRSA SCCmec type XI); assay: MIC, broth dilution; format: cell-based, Staphylococcus aureus; details: Table 5; STIP3 variants, highest concentration 100 μg/mL
Procedure, shortened: (§2)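 Peptides of 95% purity tested as 2-fold dilution series against bacteria diluted to OD 6×10^−4 in cation-adjusted Mueller Hinton broth. Standing cultures incubated overnight at 37° C; MIC is the lowest concentration with no visible growth.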

[11] = tested on: S. aureus ATCC BAA-2094 (MRSA SCCmec type V); assay: MIC, broth dilution; format: cell-based, Staphylococcus aureus; details: Table 5; STIP3 variants, highest concentration 100 μg/mL
Procedure, shortened: as §2

[12] = tested on: S. aureus ATCC BAA-1683 (MRSA SCCmec type IV); assay: MIC, broth dilution; format: cell-based, Staphylococcus aureus; details: Table 5; STIP3 variants, highest concentration 100 μg/mL
Procedure, shortened: as §2

[13] = tested on: S. aureus ATCC 33592 (MRSA SCCmec type III); assay: MIC, broth dilution; format: cell-based, Staphylococcus aureus; details: Table 5; STIP3 variants, highest concentration 100 μg/mL
Procedure, shortened: as §2

S. aureus ATCC 29213 = assay: MIC, broth dilution; format: cell-based, Staphylococcus aureus; details: Table 5; STIP3 variants, highest concentration 100 μg/mL
Procedure, shortened: as §2

[14] = tested on: S. aureus ATCC BAA-44 (MRSA SCCmec type I); assay: MIC, broth dilution; format: cell-based, Staphylococcus aureus; details: Table 5; STIP3 variants, highest concentration 100 μg/mL
Procedure, shortened: as §2

[15] = tested on: S. aureus ATCC BAA-41 (MRSA SCCmec type II); assay: MIC, broth dilution; format: cell-based, Staphylococcus aureus; details: Table 5; STIP3 variants, highest concentration 100 μg/mL
Procedure, shortened: as §2

[16] = tested on: S. aureus ATCC BAA-42 (MRSA SCCmec type VI); assay: MIC, broth dilution; format: cell-based, Staphylococcus aureus; details: Table 5; STIP3 variants, highest concentration 100 μg/mL
Procedure, shortened: as §2

TVGGLVKWILDTVKKFA-NH2 [STIP3-27, TVGGLVKWILDTVKKFA-NH2]
MIC C. albicans Y537 (C. albicans Y537): 50 µg/mL
MIC C. albicans MYA-2876 (C. albicans MYA-2876): 25 µg/mL
MIC (μg/mL) M. haemolytica [1]: 25 µg/mL
MIC (μg/mL) Candida duobushaemulonii AR 392 [2]: > (values below the line were determined using two concentrations of peptide 200 or 100 μg/mL)
MIC (μg/mL) Saccharomyces cerevisiae AR 400 [3]: ≤ 100 µg/mL
MIC (μg/mL) Candida haemulonii AR 393 [4]: > (values below the line were determined using two concentrations of peptide 200 or 100 μg/mL)
MIC (μg/mL) Candida duobushaemulonii AR 391 [5]: > (values below the line were determined using two concentrations of peptide 200 or 100 μg/mL)
MIC (μg/mL) Saccharomyces cerevisiae AR 399 [6]: ≤ 100 µg/mL
MIC (μg/mL) Candida lusitaniae AR 398 [7]: ≤ 100 µg/mL
MIC (μg/mL) Kodamae ohmeri AR 396 (Kodamae ohmeri AR 396): ≤ 100 µg/mL
MIC (μg/mL) Candida duobushaemulonii AR 394 [8]: > (values below the line were determined using two concentrations of peptide 200 or 100 μg/mL)
MIC (μg/mL) Candida haemulonii AR 395 [9]: > (values below the line were determined using two concentrations of peptide 200 or 100 μg/mL)
MIC (μg/mL) Candida krusei AR 397 (Candida krusei AR 397): ≤ 100 µg/mL
MIC S. aureus ATCC BAA 2313 (XI) [10]: 50 µg/mL
MIC S. aureus ATCC BAA 2094 (V) [11]: 25 µg/mL
MIC S. aureus ATCC BAA 1683 (IV) [12]: 25 µg/mL
MIC S. aureus ATCC 33592 (III) [13]: 50 µg/mL
MIC S. aureus ATCC 29213 (S. aureus ATCC 29213): 50 µg/mL
MIC S. aureus ATCC BAA 44 (I) [14]: 25 µg/mL
MIC S. aureus ATCC BAA 41 (II) [15]: 25 µg/mL
MIC S. aureus ATCC BAA 42 (VI) [16]: 25 µg/mL

TVGGLVKWILKTVKKFA [STIP3-3, TVGGLVKWILKTVKKFA]
MIC C. albicans Y537 (C. albicans Y537): 50 µg/mL
MIC C. albicans MYA-2876 (C. albicans MYA-2876): 25 µg/mL
MIC (μg/mL) M. haemolytica [1]: 12.5 µg/mL
MIC (μg/mL) Candida duobushaemulonii AR 392 [2]: > (values below the line were determined using two concentrations of peptide 200 or 100 μg/mL)
MIC (μg/mL) Saccharomyces cerevisiae AR 400 [3]: ≤ 100 µg/mL
MIC (μg/mL) Candida haemulonii AR 393 [4]: > (values below the line were determined using two concentrations of peptide 200 or 100 μg/mL)
MIC (μg/mL) Candida duobushaemulonii AR 391 [5]: ≤ 100 µg/mL
MIC (μg/mL) Saccharomyces cerevisiae AR 399 [6]: ≤ 100 µg/mL
MIC (μg/mL) Candida lusitaniae AR 398 [7]: ≤ 100 µg/mL
MIC (μg/mL) Kodamae ohmeri AR 396 (Kodamae ohmeri AR 396): ≤ 100 µg/mL
MIC (μg/mL) Candida duobushaemulonii AR 394 [8]: > (values below the line were determined using two concentrations of peptide 200 or 100 μg/mL)
MIC (μg/mL) Candida haemulonii AR 395 [9]: > (values below the line were determined using two concentrations of peptide 200 or 100 μg/mL)
MIC (μg/mL) Candida krusei AR 397 (Candida krusei AR 397): ≤ 100 µg/mL
MIC S. aureus ATCC BAA 2313 (XI) [10]: 50 µg/mL
MIC S. aureus ATCC BAA 2094 (V) [11]: 25 µg/mL
MIC S. aureus ATCC BAA 1683 (IV) [12]: 50 µg/mL
MIC S. aureus ATCC 33592 (III) [13]: 25 µg/mL
MIC S. aureus ATCC 29213 (S. aureus ATCC 29213): 25 µg/mL
MIC S. aureus ATCC BAA 44 (I) [14]: 25 µg/mL
MIC S. aureus ATCC BAA 41 (II) [15]: 25 µg/mL
MIC S. aureus ATCC BAA 42 (VI) [16]: 50 µg/mL
